# In patent US6472348B1, “Pyridone derivatives and herbicides” (Kumiai Chemical Industry Co., Ltd., priority 1996, dated 2002):
# How the values were obtained:
# Format in all cases: in vivo
# Digitaria ciliaris (Di) = test: Test Example 2: herbicidal effects by upland field soil treatment; conditions: 100 g of the active ingredient per 10 ares;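 also: grade of growth control; 5 = at least 90%; 4 = 70 to 90%; 3 = 50 to 70%; 2 = 30 to 50%; 1 = 10 to 30%; 0 = under 10%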
# Description: (§1) (Test on Herbicidal Effects by Upland Field Soil Treatment)
# slender amaranth (Am) [1] = test: as above; conditions: 100 g of the active ingredient per 10 ares
# Description: as §1
# pale smartweed (Po) [2] = test: Test Example 3: herbicidal effects by upland field foliage treatment; parameters: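 grade of growth control; 5 = at least 90%; 4 = 70 to 90%; 3 = 50 to 70%; 2 = 30 to 50%; 1 = 10 to 30%; 0 = under 10%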
# Procedure, shortened: (§2)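 Using plants cultured for 2 weeks in a greenhouse from seed sown in soil-covered sand (pots 120 cm^2), the compounds were applied to foliage, and weed control was graded by standard criteria 14 days thereafter.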
# barnyardgrass (Ec) = test: as above; parameters: scale not given here
# Procedure, shortened: as §2
# [3] = test system: common lambsquarters (Ch); test: as above; parameters: scale not given here
# Procedure, shortened: as §2
# rice flatsedge (Ci) = test: as above; parameters: scale not given here
# Procedure, shortened: as §2
# Diaitaria ciliaris (Di) = test: as above; parameters: scale not given here
# Procedure, shortened: as §2
# slender amaranth (Am) [4] = test: as above; parameters: scale not given here
# Procedure, shortened: as §2
# pale smartweed (Po) [5] = test: Test Example 6: crop plant selectivity by upland field soil treatment (soybean), herbicidal effects; parameters: scale not given here; conditions: 21st day after application
# Procedure, shortened: (§3)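 Soybean and weeds sown in sand-filled pots and covered with soil, then treated by soil application. Plants grown in a greenhouse, with herbicidal effect and crop phytotoxicity scored on day 21 after application against a fixed rating scale.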
# slender amaranth (Am) [6] = test: as above; parameters: scale not given here; conditions: 21st day after application
# Procedure, shortened: as §3
# [7] = evaluated on the 21st day after application
# [8] = 100 g active ingredient per 10 ares, evaluated 14th day after treatment
# [9] = 100 g of the active ingredient per 10 ares, evaluated on the 14th day after treatment
# [10] = 21st day after the application, index 0-5 of Table 47
Compound,Herbicidal effects Di (Digitaria ciliaris (Di); [7]),Herbicidal effects Am (slender amaranth (Am) [1]; [7]),Herbicidal effects Po (pale smartweed (Po) [2]; [8]),Herbicidal effects Ec (barnyardgrass (Ec); [8]),"Herbicidal effects Ch [3, 8]",Herbicidal effects Ci (rice flatsedge (Ci); [8]),Herbicidal effects Di (Diaitaria ciliaris (Di); [8]),Herbicidal effects Am (slender amaranth (Am) [4]; [8]),Herbicidal effects Po (pale smartweed (Po) [5]; dose 1.6 g ai/10a),Herbicidal effects Po (pale smartweed (Po) [5]; dose 6.3 g ai/10a),Herbicidal effects Am (slender amaranth (Am) [6]; dose 1.6 g ai/10a),Herbicidal effects Am (slender amaranth (Am) [6]; dose 6.3 g ai/10a),Herbicidal effects Po (pale smartweed (Po) [2]; [9]),Herbicidal effects Ec (barnyardgrass (Ec); [9]),"Herbicidal effects Ch [3, 9]",Herbicidal effects Ci (rice flatsedge (Ci); [9]),Herbicidal effects Di (Diaitaria ciliaris (Di); [9]),Herbicidal effects Am (slender amaranth (Am) [4]; [9]),Herbicidal effects Di (Digitaria ciliaris (Di); [10]),Herbicidal effects Am (slender amaranth (Am) [1]; [10])
C#CC(C)Oc1cc(Cl)cc(F)c1-c1ccc(C(F)(F)F)n(C)c1=O (stereo not drawn) [1′-5],5,5,5,5,5,5,5,5,5,5,5,5,–,–,–,–,–,–,–,–
C=CC(C)Oc1cc(-c2ccc(C(F)(F)F)n(C)c2=O)c(F)cc1Cl (stereo not drawn) [Compound 1-182],5,5,–,–,–,–,–,–,–,5,–,5,5,5,5,5,5,5,–,–
CCON=Cc1cc(-c2ccc(C(F)(F)F)n(C)c2=O)c(F)cc1Cl [Compound 1-187],5,5,5,5,5,5,5,5,–,5,–,5,–,–,–,–,–,–,–,–
CCOC(=O)CON=Cc1cc(-c2ccc(C(F)(F)F)n(C)c2=O)c(F)cc1Cl [Compound 1-191],5,5,5,5,5,5,5,5,–,5,–,5,–,–,–,–,–,–,–,–
C=CC(O)c1cc(-c2ccc(C(F)(F)F)n(C)c2=O)c(F)cc1Cl (stereo not drawn) [Compound 1-197],5,5,5,5,5,5,5,5,–,5,–,5,–,–,–,–,–,–,–,–
C#CC(O)c1cc(-c2ccc(C(F)(F)F)n(C)c2=O)c(F)cc1Cl (stereo not drawn) [Compound 1-202],5,5,5,5,5,5,5,5,5,–,5,–,–,–,–,–,–,–,–,–
CSCOc1cc(-c2ccc(C(F)(F)F)n(C)c2=O)c(F)cc1Cl [Compound 1-208],5,5,5,5,5,5,5,5,–,4,–,5,–,–,–,–,–,–,–,–
C=CCN1C(=O)COc2cc(F)c(-c3ccc(C(F)(F)F)n(C)c3=O)cc21 [Compound 2-7],5,5,5,5,5,5,5,5,5,5,5,5,–,–,–,–,–,–,–,–
C#CCN1C(=O)COc2cc(Cl)c(-c3ccc(C(F)(F)F)n(C)c3=O)cc21 [Compound 2-25],5,5,5,5,5,5,5,5,5,5,5,5,–,–,–,–,–,–,–,–
C=CCN1C(=O)COc2cc(Cl)c(-c3ccc(C(F)(F)F)n(C)c3=O)cc21 [Compound 2-26],5,5,5,5,5,5,5,5,–,5,–,5,–,–,–,–,–,–,–,–
Cc1cc2c(-c3ccc(C(F)(F)F)n(C)c3=O)c(F)cc(Cl)c2o1 [Compound 4-1],5,5,5,5,5,5,5,5,5,5,5,5,–,–,–,–,–,–,–,–
CCc1cc2c(-c3ccc(C(F)(F)F)n(C)c3=O)c(F)cc(Cl)c2o1 [Compound 4-2],5,5,5,5,5,5,5,5,5,–,5,–,–,–,–,–,–,–,–,–
CCCc1cc2c(-c3ccc(C(F)(F)F)n(C)c3=O)c(F)cc(Cl)c2o1 [Compound 4-3],5,5,5,5,5,5,5,5,–,5,–,5,–,–,–,–,–,–,–,–
CCc1cc2c(Cl)cc(F)c(-c3ccc(C(F)(F)F)n(C)c3=O)c2o1 [Compound 5-2],5,5,5,5,5,5,5,5,–,5,–,5,–,–,–,–,–,–,–,–
"CON=Cc1cc(-c2ccc(C(F)(F)F)n(C)c2=O)c(F)cc1Cl [Compound No. 1-72, 5-(1-methyl-6-trifluoromethyl-2(1H)-pyridon-3-yl)-2-chloro-4-fluorobenzaldehydeoxime-O-methyl ether]",–,–,–,–,–,–,–,–,5,5,5,5,5,5,5,5,5,5,5,5
"Cn1c(C(F)(F)F)ccc(-c2cc(C#N)c(Cl)cc2F)c1=O [Compound No. 1-119, 3-(4-chloro-5-cyano-2-fluorophenyl)-1-methyl-6-trifluoromethyl-2(1H)-pyridone]",–,–,–,–,–,–,–,–,–,5,–,5,5,5,5,5,5,5,5,5
"CCCC(=O)c1cc(-c2ccc(C(F)(F)F)n(C)c2=O)c(F)cc1Cl [Compound No. 1-194, 3-[4-chloro-2-fluoro-5-(1-oxobutyl)phenyl]-1-methyl-6-trifluoromethyl-2(1H)-pyridone]",5,5,5,5,5,5,5,5,–,5,–,5,–,–,–,–,–,–,–,–
